The values below come from ChEMBL document CHEMBL1201862, “PubChem BioAssay data set” (2004).

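Each compound was tested at five concentrations against cells in 96-well plates for 48 hours. Abbreviation: GI50, concentration required for 50% inhibition of growth.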 The source made the active and inactive calls. Rule as the data show it: active = GI50 up to about 1.1 µM and inactive = higher. Some results are limits rather than exact numbers.

Test systems include HCT-15; SF-268; MDA-N; SW-620; Malme-3M; HL-60; OVCAR-5; HT-29; SK-MEL-28; OVCAR-8; UACC-257; IGROV-1; MDA-MB-231; M14; NCI-H460; A498; HOP-92; CCRF-CEM; NCI-H23; COLO 205.
Holding throughout (assay): NCI tumour cell line growth inhibition, 48 h

As for `O=S1(=O)Cc2ccc3c4c2-c2c(ccc5ccc(c-4c25)CS(=O)(=O)C3)C1`, the GI50 was 22.9 µM with HCT-15; 53.1 µM (inactive) in the experiment with SF-268; > 100 µM (inactive) in the experiment with MDA-N; 71 µM (inactive) in the experiment on SW-620; > 100 µM (inactive) in the experiment on Malme-3M; 16.3 µM (inactive) with HL-60. Further, the GI50 is > 100 µM (inactive) in the experiment on OVCAR-5; 57 µM (inactive) in the experiment with HT-29; > 100 µM (inactive) in the experiment with SK-MEL-28; 90.2 µM (inactive) in the experiment with OVCAR-8; > 100 µM (inactive) in the experiment on UACC-257; 29.8 µM (inactive) with IGROV-1. Also, the GI50 is > 100 µM (inactive) in the experiment on MDA-MB-231; > 100 µM (inactive) with M14; 63.2 µM (inactive) in the experiment with NCI-H460; > 100 µM (inactive) with A498; 89.9 µM (inactive) in the experiment with HOP-92.

On to `CCOC(=O)c1cn(CC)c2cc3c(cc2c1=O)CCS3(=O)=O`, for which the GI50 with HCT-15 was greater than 100 µM; in the experiment on SF-268, > 100 µM (inactive); with MDA-N, > 100 µM (inactive); with SW-620, > 100 µM (inactive); in the experiment on Malme-3M it was > 100 µM (inactive); in the experiment with HL-60 it was > 100 µM (inactive). For the same compound, the GI50 with OVCAR-5, in the experiment on HT-29, in the experiment with CCRF-CEM, in the experiment with SK-MEL-28, in the experiment with OVCAR-8 and with IGROV-1 was > 100 µM (inactive) in each case. Also, the GI50 with NCI-H23, with MDA-MB-231, with M14, in the experiment with NCI-H460, in the experiment with A498 and in the experiment on HOP-92 was > 100 µM (inactive) in each case.

Consider `COc1ccc(CC[N+]2(C)COc3cc4oc(=O)cc(C)c4cc3C2)cc1OC` (centres undefined), for which the GI50 is greater than 100 µM with HCT-15; > 100 µM (inactive) in the experiment on SF-268; > 100 µM (inactive) in the experiment on MDA-N; > 100 µM (inactive) in the experiment with SW-620; > 100 µM (inactive) in the experiment with Malme-3M; > 100 µM (inactive) in the experiment with HL-60. Also, the GI50 in the experiment with OVCAR-5, in the experiment with HT-29, in the experiment with CCRF-CEM, in the experiment with SK-MEL-28, in the experiment on OVCAR-8 and in the experiment with COLO 205 was > 100 µM (inactive) throughout. In addition, the GI50 in the experiment on UACC-257, in the experiment on IGROV-1, in the experiment on NCI-H23, with MDA-MB-231, in the experiment on M14 and in the experiment on A498 was > 100 µM (inactive) in each case. For the same compound, the GI50 in the experiment on HOP-92 was > 100 µM (inactive).

For `CSC1=N/C(=C\c2ccccc2)C(=O)N1CN1CCOCC1`, the GI50 in the experiment on HCT-15 is 33.3 µM; in the experiment on SF-268 it was 61.5 µM (inactive); with MDA-N, > 100 µM (inactive); with SW-620 it was 41.6 µM (inactive); in the experiment on Malme-3M, 57.3 µM (inactive); in the experiment with HL-60 it was 54.6 µM (inactive). Besides, the GI50 in the experiment on OVCAR-5 is > 100 µM (inactive); with HT-29 it was 30.8 µM (inactive); with CCRF-CEM it was 36 µM (inactive); in the experiment with SK-MEL-28, > 100 µM (inactive); with OVCAR-8, 41.1 µM (inactive); in the experiment with COLO 205 it was 54.5 µM (inactive). Moreover, the GI50 was 52.7 µM (inactive) in the experiment on IGROV-1; > 100 µM (inactive) in the experiment with NCI-H23; > 100 µM (inactive) in the experiment on MDA-MB-231; 91.8 µM (inactive) in the experiment on M14; > 100 µM (inactive) with A498; > 100 µM (inactive) with HOP-92.

As to `Cc1cccc(Nc2cc(Cl)nc(SCC(=O)O)n2)c1C` [PIRINIXIC ACID], the GI50 in the experiment with HCT-15 is greater than 100 µM; in the experiment with MDA-N it was > 100 µM (inactive); with SW-620 it was > 100 µM (inactive); in the experiment with Malme-3M, > 100 µM (inactive); in the experiment on HL-60 it was > 100 µM (inactive); in the experiment with OVCAR-5 it was > 100 µM (inactive). In addition, the GI50 in the experiment with HT-29, with CCRF-CEM, in the experiment on SK-MEL-28, with OVCAR-8, in the experiment on COLO 205 and with UACC-257 was > 100 µM (inactive) in each case. Also, the GI50 in the experiment on IGROV-1, in the experiment on NCI-H23, in the experiment on MDA-MB-231, in the experiment with M14, in the experiment on NCI-H460 and in the experiment with A498 was > 100 µM (inactive) each time. For the same compound, the GI50 in the experiment with HOP-92 is > 100 µM (inactive).

For the compound `N#CC1(C#N)C(c2ccccc2)C=CC(c2ccc([N+](=O)[O-])cc2)C1(C#N)C#N` (centres undefined), the GI50 was 3.69 µM in the experiment on HCT-15; 17.5 µM (inactive) in the experiment on SF-268; 6.22 µM (inactive) in the experiment with MDA-N; 3.66 µM (inactive) in the experiment on SW-620; 0.223 µM (active) in the experiment on HL-60; 17.1 µM (inactive) in the experiment on OVCAR-5. Also, the GI50 in the experiment on HT-29 was 3.61 µM (inactive); in the experiment on CCRF-CEM it was 0.278 µM (active); in the experiment on SK-MEL-28, 15.8 µM (inactive); in the experiment on OVCAR-8 it was 11.2 µM (inactive); with COLO 205, 1.57 µM (inactive); in the experiment with UACC-257 it was 16.3 µM (inactive). The GI50 in the experiment on IGROV-1 is 14 µM (inactive); in the experiment with NCI-H23, 12.4 µM (inactive); in the experiment with MDA-MB-231, 13.4 µM (inactive); in the experiment on M14, 4.59 µM (inactive); with NCI-H460 it was 30.3 µM (inactive); with A498, 16.6 µM (inactive). The GI50 in the experiment with HOP-92 was 3.43 µM (inactive).

With `O=C(NC1(C(=O)O)CC1c1ccccc1)c1ccccc1` (centres undefined), the GI50 with HCT-15 was greater than 100 µM; in the experiment with SF-268 it was > 100 µM (inactive); in the experiment with MDA-N it was > 100 µM (inactive); in the experiment on SW-620 it was > 100 µM (inactive); in the experiment with Malme-3M, > 100 µM (inactive); with HL-60, > 100 µM (inactive). In addition, the GI50 in the experiment on OVCAR-5, in the experiment with HT-29, with SK-MEL-28, with OVCAR-8, in the experiment on COLO 205 and in the experiment with UACC-257 was > 100 µM (inactive) in each case. Besides, the GI50 in the experiment with IGROV-1, in the experiment with NCI-H23, with MDA-MB-231, with M14, in the experiment with NCI-H460 and in the experiment with A498 was > 100 µM (inactive) in each case. Besides, the GI50 with HOP-92 was > 100 µM (inactive).

With `Cc1cc2c(nn1)-c1ccccc1C2=O`, the GI50 was greater than 10 µM in the experiment on HCT-15; > 10 µM (inactive) in the experiment on SF-268; > 10 µM (inactive) with MDA-N; > 10 µM (inactive) in the experiment on SW-620; > 10 µM (inactive) with Malme-3M; > 10 µM (inactive) with HL-60. Also, the GI50 with OVCAR-5, in the experiment on HT-29, with CCRF-CEM, with SK-MEL-28, with OVCAR-8 and with COLO 205 was > 10 µM (inactive) throughout. Moreover, the GI50 in the experiment with IGROV-1, with NCI-H23, with MDA-MB-231, with M14, with NCI-H460 and with A498 was > 10 µM (inactive) each time. Further, in the experiment on HOP-92, the GI50 is > 10 µM (inactive).

Consider `Cc1cccc(N2C(=O)C3c4[nH]c5ccccc5c4C4CCC(C(C)(C)C)CC4C3C2=O)c1C` (centres undefined), for which the GI50 in the experiment with HCT-15 was greater than 100 µM; in the experiment on MDA-N it was > 100 µM (inactive); in the experiment with SW-620 it was 40 µM (inactive); with Malme-3M it was > 100 µM (inactive); with HL-60 it was 16.9 µM (inactive); in the experiment with OVCAR-5, > 100 µM (inactive). Moreover, the GI50 in the experiment with HT-29 is > 100 µM (inactive); in the experiment with CCRF-CEM, 56.6 µM (inactive); in the experiment on OVCAR-8, 38.9 µM (inactive); in the experiment on COLO 205, > 100 µM (inactive); with UACC-257, > 100 µM (inactive); in the experiment on IGROV-1, > 100 µM (inactive). Besides, the GI50 in the experiment on NCI-H23 was > 100 µM (inactive); in the experiment on MDA-MB-231 it was 19 µM (inactive); with M14, > 100 µM (inactive); with NCI-H460 it was > 100 µM (inactive); in the experiment on A498 it was > 100 µM (inactive); in the experiment on HOP-92, > 100 µM (inactive).

For the compound `CCCN(C(=O)c1c(Cl)nnc(Cl)c1C(=O)c1cc(Cl)nnc1Cl)c1cc(Cl)nnc1Cl`, the GI50 in the experiment on HCT-15 was 4.65 µM; with SF-268, 4.35 µM (inactive); in the experiment on MDA-N it was 6.7 µM (inactive); in the experiment with SW-620, 6.67 µM (inactive); with HL-60 it was 2.48 µM (inactive); in the experiment with OVCAR-5, 21 µM (inactive). The GI50 in the experiment on HT-29 is 16.7 µM (inactive); in the experiment on CCRF-CEM, 2.92 µM (inactive); in the experiment on SK-MEL-28, 12.9 µM (inactive); in the experiment on OVCAR-8 it was 2.29 µM (inactive); with COLO 205 it was 5.77 µM (inactive); with UACC-257 it was 14.2 µM (inactive). In addition, the GI50 in the experiment on IGROV-1 is 7.52 µM (inactive); in the experiment with NCI-H23, 5.77 µM (inactive); with MDA-MB-231, 15.7 µM (inactive); with M14, 16.1 µM (inactive); in the experiment on NCI-H460 it was 20.9 µM (inactive); in the experiment with A498 it was 15.5 µM (inactive). Further, the GI50 in the experiment with HOP-92 is 18.4 µM (inactive).

As to `Cc1ccc(/N=C2/C(c3ccccc3)=C(SC3=C(c4ccccc4)/C(=N/c4ccc(C)cc4)c4ccccc43)c3ccccc32)cc1`, the GI50 was 17.7 µM in the experiment with HCT-15; 6.44 µM (inactive) in the experiment on SF-268; 97.7 µM (inactive) in the experiment with MDA-N; > 100 µM (inactive) in the experiment on SW-620; 7.87 µM (inactive) in the experiment with HL-60; 39 µM (inactive) with OVCAR-5. For the same compound, the GI50 was 24.6 µM (inactive) in the experiment on HT-29; > 100 µM (inactive) with CCRF-CEM; > 39.7 µM (inactive) with SK-MEL-28; 9.59 µM (inactive) with OVCAR-8; > 100 µM (inactive) with COLO 205; 23.4 µM (inactive) with UACC-257. For the same compound, the GI50 in the experiment on IGROV-1 is 17.1 µM (inactive); in the experiment with NCI-H23, 14 µM (inactive); with MDA-MB-231, 12.6 µM (inactive); in the experiment on M14, 59.8 µM (inactive); in the experiment with NCI-H460, 8.91 µM (inactive); with A498, 15.2 µM (inactive). In addition, the GI50 in the experiment on HOP-92 was 12.1 µM (inactive).
